In ChEMBL document CHEMBL5465560, “Selectivity Literature for EUbOPEN Chemogenomic Library” (2024):
pIC50: −log10 of the molar value.

What was measured:
[1] = biological target: T1, Serine/threonine-protein kinase D2 (Homo sapiens) (UniProt Q9BZL6); settings: at 10 µM
T1 sequence (whole entry): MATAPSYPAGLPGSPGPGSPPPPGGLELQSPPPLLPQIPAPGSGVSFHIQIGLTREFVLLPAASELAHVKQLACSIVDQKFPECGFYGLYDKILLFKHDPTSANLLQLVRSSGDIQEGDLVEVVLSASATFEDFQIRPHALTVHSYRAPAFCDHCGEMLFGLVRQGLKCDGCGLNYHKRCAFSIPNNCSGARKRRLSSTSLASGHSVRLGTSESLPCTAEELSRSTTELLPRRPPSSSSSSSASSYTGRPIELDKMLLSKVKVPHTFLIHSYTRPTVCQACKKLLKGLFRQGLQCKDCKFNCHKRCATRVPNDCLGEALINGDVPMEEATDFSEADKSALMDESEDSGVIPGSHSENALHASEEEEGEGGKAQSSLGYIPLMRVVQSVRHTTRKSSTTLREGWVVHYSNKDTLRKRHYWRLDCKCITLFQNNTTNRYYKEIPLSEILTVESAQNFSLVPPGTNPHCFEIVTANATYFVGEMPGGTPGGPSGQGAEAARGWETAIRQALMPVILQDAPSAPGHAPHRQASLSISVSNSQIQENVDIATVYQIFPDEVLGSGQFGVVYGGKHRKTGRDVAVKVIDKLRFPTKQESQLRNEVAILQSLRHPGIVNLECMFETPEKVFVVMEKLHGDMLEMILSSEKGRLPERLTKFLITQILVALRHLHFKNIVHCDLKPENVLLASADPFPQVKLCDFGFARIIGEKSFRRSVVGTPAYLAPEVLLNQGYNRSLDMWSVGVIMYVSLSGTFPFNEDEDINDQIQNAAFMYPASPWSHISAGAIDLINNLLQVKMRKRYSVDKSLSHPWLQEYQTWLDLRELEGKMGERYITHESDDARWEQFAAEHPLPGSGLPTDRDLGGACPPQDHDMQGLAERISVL

[2] = biological target: Ribosomal protein S6 kinase alpha-2 (Homo sapiens) (UniProt Q15349); settings: at 10 µM
[3] = biological target: Dual specificity mitogen-activated protein kinase kinase 1 (Homo sapiens, UniProt Q02750); experiment: Selectivity interaction (KinomeScan (DiscoverX)) EUB0000229b MAP2K1; settings: at 10 µM
[4] = biological target: MAP/microtubule affinity-regulating kinase 3 (Homo sapiens) (UniProt P27448); experiment: Selectivity interaction (KinomeScan (DiscoverX)) EUB0000229b MARK3; settings: at 10 µM
[5] = biological target: Serine/threonine-protein kinase pim-1 (Homo sapiens, UniProt P11309); experiment: Selectivity interaction (KinomeScan (DiscoverX)) EUB0000092b PIM1; settings: at 10 µM
[6] = biological target: Serine/threonine-protein kinase Nek7 (Homo sapiens) (UniProt Q8TDX7); experiment: Selectivity interaction (ProQinase) EUB0000171b NEK7
[7] = biological target: LIM domain kinase 2 (Homo sapiens) (UniProt P53671); experiment: Selectivity interaction (KinomeScan (DiscoverX)) EUB0000666a LIMK2; settings: at 10 µM
[8] = biological target: Epithelial discoidin domain-containing receptor 1 (Homo sapiens) (UniProt Q08345); experiment: Selectivity interaction (LanthaScreen Eu Kinase Binding Assay) EUB0001632a DDR1; settings: at 10 µM
[9] = biological target: Mitogen-activated protein kinase 4 (Homo sapiens) (UniProt P31152); experiment: Selectivity interaction (KinomeScan (DiscoverX)) EUB0000695a MAPK4; settings: at 100 nM
[10] = biological target: T2, Tyrosine-protein kinase ZAP-70 (Homo sapiens, UniProt P43403); experiment: Selectivity interaction (Kinase panel (enzymatic assay)) EUB0000595a ZAP70
T2 sequence (P43403 whole entry): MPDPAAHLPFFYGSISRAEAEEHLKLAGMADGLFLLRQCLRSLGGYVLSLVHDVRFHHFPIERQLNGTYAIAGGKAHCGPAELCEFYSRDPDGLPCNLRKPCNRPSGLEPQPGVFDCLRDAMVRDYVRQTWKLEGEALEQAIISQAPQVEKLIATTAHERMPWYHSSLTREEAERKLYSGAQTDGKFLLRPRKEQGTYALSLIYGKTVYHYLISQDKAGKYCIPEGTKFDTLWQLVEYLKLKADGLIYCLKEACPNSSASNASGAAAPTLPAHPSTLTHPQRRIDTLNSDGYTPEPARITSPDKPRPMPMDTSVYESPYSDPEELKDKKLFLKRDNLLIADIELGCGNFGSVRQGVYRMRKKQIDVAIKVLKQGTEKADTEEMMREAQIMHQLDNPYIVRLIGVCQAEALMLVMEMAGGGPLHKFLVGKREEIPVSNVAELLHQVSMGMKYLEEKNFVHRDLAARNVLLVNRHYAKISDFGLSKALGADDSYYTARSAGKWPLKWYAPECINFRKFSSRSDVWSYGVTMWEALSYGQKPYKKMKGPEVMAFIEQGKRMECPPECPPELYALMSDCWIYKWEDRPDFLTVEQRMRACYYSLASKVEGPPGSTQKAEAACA

[11] = biological target: T3, Serine/threonine-protein kinase BRSK2 (Homo sapiens) (UniProt Q8IWQ3); settings: at 10 µM
T3 sequence (whole entry): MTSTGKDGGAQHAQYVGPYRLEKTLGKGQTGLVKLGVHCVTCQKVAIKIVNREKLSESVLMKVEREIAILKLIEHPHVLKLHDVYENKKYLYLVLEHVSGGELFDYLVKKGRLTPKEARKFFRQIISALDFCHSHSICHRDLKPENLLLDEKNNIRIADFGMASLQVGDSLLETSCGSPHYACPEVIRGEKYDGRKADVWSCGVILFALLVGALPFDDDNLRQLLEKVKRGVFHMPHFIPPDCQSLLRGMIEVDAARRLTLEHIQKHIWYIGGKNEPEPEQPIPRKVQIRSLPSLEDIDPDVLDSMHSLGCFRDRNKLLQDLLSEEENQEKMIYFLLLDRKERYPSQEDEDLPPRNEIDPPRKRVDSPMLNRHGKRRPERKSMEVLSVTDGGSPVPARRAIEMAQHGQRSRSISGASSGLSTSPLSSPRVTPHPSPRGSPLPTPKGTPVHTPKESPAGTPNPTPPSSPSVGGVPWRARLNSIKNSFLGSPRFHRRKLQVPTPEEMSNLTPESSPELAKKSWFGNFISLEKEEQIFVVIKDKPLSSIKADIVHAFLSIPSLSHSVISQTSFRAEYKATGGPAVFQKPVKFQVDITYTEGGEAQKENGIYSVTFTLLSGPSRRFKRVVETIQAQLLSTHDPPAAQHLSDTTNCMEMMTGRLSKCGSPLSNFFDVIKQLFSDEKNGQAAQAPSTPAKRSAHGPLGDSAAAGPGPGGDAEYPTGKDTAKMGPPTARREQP

[12] = test system: Phosphatidylinositol 4,5-bisphosphate 3-kinase catalytic subunit alpha isoform (Homo sapiens), P42336 [E545A]; settings: at 10 µM
[13] = biological target: Mitogen-activated protein kinase kinase kinase kinase 4 (Homo sapiens, UniProt O95819); experiment: Selectivity interaction (Kinase screening (Nanosyn)) EUB0000604a MAP4K4

Chain of Serine/threonine-protein kinase Nek7 (Homo sapiens) (Q8TDX7 whole entry, looked up, the tested form may be a part): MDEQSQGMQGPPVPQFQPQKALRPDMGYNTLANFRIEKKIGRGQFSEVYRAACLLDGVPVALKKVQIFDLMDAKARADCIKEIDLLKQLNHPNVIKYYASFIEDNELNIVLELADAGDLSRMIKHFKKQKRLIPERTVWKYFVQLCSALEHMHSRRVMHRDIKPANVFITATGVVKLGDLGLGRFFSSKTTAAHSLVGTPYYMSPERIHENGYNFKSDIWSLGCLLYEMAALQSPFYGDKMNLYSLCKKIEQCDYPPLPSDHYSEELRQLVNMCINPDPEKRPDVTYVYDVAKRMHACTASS
Chain of Phosphatidylinositol 4,5-bisphosphate 3-kinase catalytic subunit alpha isoform (Homo sapiens), P42336 [E545A] (P42336 whole entry E545A, canonical isoform): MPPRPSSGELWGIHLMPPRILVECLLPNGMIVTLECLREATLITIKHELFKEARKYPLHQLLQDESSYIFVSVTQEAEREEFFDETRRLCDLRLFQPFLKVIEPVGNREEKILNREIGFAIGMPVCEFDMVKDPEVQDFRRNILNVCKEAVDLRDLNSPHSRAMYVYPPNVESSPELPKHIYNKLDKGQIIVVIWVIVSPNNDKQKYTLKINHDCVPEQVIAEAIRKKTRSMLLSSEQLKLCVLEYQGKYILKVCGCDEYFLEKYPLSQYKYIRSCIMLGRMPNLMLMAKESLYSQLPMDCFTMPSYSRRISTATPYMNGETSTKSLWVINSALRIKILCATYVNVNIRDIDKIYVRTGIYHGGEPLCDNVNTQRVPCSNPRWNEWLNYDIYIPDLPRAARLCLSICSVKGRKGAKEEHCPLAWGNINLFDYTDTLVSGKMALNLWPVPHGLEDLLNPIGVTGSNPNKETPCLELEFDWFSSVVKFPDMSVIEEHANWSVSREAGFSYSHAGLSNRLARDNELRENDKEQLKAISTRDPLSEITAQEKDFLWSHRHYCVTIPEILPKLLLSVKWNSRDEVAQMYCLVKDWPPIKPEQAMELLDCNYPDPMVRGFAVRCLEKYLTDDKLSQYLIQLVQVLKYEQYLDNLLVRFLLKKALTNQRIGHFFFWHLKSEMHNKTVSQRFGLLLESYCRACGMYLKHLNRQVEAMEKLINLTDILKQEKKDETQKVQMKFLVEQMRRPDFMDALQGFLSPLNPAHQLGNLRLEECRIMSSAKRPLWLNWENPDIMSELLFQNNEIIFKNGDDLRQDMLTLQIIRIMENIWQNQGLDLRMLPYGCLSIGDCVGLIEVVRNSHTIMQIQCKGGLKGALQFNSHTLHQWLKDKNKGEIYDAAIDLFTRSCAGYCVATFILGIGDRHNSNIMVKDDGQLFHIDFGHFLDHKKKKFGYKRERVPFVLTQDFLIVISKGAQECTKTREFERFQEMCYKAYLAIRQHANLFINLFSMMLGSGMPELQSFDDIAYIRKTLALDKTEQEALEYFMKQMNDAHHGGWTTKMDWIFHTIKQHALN
Chain of MAP/microtubule affinity-regulating kinase 3 (Homo sapiens) (P27448 whole entry, looked up): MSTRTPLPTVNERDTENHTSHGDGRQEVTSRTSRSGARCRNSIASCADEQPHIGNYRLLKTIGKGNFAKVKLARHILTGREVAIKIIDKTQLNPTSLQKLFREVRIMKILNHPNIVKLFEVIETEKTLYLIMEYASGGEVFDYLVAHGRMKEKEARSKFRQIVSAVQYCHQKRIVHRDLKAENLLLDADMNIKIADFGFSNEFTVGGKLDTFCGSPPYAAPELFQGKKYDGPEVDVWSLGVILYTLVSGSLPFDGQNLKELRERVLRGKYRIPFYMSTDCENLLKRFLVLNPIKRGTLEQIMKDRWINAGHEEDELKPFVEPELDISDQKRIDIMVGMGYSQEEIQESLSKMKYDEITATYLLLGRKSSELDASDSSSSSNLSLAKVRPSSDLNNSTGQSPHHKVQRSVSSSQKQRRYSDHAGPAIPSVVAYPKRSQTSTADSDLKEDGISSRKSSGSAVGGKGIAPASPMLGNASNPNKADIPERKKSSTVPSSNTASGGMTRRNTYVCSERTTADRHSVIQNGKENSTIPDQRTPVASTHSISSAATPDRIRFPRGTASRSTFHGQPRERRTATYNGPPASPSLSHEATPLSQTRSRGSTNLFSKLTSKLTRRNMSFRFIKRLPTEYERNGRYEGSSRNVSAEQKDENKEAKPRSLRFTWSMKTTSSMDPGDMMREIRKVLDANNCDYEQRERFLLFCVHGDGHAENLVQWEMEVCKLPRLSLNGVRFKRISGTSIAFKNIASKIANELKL
Chain of Mitogen-activated protein kinase 4 (Homo sapiens) (P31152 whole entry): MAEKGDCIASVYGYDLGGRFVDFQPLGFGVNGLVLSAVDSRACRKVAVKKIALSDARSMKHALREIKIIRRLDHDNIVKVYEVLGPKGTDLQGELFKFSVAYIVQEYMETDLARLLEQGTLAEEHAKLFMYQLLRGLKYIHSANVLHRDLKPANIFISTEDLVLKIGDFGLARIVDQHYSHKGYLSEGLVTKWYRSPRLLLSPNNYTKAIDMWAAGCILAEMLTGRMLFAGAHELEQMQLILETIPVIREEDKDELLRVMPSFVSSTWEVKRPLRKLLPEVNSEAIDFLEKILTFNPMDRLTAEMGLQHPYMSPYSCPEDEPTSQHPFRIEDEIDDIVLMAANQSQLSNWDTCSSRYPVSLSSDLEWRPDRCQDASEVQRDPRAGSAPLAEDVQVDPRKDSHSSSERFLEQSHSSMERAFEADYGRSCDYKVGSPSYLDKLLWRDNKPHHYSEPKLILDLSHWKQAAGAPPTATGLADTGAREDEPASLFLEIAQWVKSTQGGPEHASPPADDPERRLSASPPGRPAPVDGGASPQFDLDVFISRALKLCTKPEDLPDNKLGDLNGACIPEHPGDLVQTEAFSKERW
Chain of Dual specificity mitogen-activated protein kinase kinase 1 (Q02750 whole entry): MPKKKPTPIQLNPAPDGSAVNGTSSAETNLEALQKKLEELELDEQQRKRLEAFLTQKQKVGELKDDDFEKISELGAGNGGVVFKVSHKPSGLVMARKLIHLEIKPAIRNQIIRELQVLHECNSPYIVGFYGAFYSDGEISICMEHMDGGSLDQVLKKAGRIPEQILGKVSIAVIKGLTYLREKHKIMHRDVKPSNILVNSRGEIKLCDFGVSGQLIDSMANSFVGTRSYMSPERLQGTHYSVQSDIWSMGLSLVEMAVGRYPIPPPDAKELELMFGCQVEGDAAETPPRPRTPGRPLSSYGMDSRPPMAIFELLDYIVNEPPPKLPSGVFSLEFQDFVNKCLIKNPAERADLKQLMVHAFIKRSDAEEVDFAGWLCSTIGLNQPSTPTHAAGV
Chain of LIM domain kinase 2 (Homo sapiens) (P53671 whole entry, looked up, the tested form may be a part): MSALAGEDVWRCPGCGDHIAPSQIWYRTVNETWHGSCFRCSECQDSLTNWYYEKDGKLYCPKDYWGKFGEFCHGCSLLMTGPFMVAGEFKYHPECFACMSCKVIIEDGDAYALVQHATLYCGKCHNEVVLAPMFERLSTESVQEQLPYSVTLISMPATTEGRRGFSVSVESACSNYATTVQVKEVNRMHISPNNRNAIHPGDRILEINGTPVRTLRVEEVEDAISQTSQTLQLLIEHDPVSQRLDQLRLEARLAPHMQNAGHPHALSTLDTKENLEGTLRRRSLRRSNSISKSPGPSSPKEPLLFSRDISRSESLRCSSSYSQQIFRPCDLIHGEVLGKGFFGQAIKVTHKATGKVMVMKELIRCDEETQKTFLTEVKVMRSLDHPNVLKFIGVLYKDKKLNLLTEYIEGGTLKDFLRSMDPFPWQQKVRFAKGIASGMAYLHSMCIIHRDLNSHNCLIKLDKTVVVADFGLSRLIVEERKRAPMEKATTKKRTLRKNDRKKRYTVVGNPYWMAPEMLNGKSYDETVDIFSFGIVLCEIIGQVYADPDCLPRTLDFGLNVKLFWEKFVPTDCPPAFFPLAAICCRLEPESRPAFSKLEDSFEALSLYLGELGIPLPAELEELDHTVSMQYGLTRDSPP
Chain of Serine/threonine-protein kinase pim-1 (P11309 whole entry, looked up): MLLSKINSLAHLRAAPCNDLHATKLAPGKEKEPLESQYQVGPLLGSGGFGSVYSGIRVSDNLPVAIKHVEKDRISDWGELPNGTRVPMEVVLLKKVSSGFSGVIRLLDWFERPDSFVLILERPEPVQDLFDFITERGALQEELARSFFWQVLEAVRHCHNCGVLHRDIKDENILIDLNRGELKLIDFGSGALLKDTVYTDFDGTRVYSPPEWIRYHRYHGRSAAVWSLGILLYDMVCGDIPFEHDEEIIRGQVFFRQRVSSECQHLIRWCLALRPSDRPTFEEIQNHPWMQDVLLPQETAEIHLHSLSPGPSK
Chain of Ribosomal protein S6 kinase alpha-2 (Homo sapiens) (Q15349 whole entry): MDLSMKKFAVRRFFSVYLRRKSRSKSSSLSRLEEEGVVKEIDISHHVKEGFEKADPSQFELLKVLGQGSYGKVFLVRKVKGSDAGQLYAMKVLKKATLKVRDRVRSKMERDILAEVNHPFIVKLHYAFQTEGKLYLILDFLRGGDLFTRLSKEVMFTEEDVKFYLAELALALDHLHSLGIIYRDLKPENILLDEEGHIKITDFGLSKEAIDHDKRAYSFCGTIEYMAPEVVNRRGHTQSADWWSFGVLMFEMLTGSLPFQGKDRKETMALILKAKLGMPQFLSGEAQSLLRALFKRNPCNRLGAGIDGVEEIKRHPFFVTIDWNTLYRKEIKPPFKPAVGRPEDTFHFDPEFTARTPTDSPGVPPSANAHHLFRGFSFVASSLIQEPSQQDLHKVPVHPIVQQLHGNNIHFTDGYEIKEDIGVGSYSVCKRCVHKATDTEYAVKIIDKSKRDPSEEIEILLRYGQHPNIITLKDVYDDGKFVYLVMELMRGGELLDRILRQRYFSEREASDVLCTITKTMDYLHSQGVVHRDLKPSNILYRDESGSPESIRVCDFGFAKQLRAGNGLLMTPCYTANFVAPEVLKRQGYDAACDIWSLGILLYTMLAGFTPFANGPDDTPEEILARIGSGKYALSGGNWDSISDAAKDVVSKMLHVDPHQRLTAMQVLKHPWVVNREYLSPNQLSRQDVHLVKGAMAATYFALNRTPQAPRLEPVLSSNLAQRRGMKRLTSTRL

`CCN(CC)CCCCNc1ncc2cc(-c3cc(OC)cc(OC)c3)c(NC(=O)NC(C)(C)C)nc2n1` was tested, and the % of control [1] was 100% and the % of control [2] was 100%.

Work on `COc1cc(N(C)c2ccnc3ccc(C(F)(F)F)cc23)cc(OC)c1OC` yielded a % binding [3] of 68% and a % binding [4] of 100%.

Compound `CCC(=O)N1CCN(c2ccc(-n3c(=O)ccc4cnc5ccc(-c6cnc7ccccc7c6)cc5c43)cc2C(F)(F)F)CC1` has a % of control [5] of 80%.

`C=CC(=O)Nc1cccc(C(=O)Nc2ccc(Nc3cc(-c4[nH]c(SC)nc4C)ccn3)cc2)c1` was tested, and the % of control ([6]; at 1 µM) was 91% and the % of control ([6]; at 5 µM) was 95%.

For `O=C(NOC[C@H](O)CO)c1ccc(F)c(F)c1Nc1ccc(I)cc1F`, the % of control [7] was 100%.

`Cn1cc(-n2cnc3c(NCc4nc5cc(Cl)c(Cl)cc5[nH]4)nc(N4CCOCC4)nc32)cn1` was tested, and the % of inhibition [8] was 0.322%.

`Cc1cc(F)c(C(=O)Nc2cccc(-c3nncn3C(C)C)n2)cc1-n1cnc(C2CC2)c1` showed a % of control [9] of 100%.

In the case of `COCC(=O)NC/C=C/c1ccc2ncnc(Nc3ccc(Oc4ccc(C)nc4)c(C)c3)c2c1` [CP-724714], the pIC50 [10] was under 5.00, the % of control [11] was 100% and the % of control [12] was 33%.

For `Cc1cnc(Nc2ccc(F)cc2Cl)nc1-c1c[nH]c(C(=O)N[C@H](CO)c2cccc(Cl)c2)c1`, the % of inhibition [13] was 18%.
